Reference: patent publication US20240376094A2, “SELECTIVE BCL-XL PROTAC COMPOUNDS AND METHODS OF USE” (Les Laboratoires Servier, priority 2021, published 2024)

What was measured:
[1] = molecular target: T1, HiBiT-tagged BCL-xL (Homo sapiens, UniProt Q07817); experiment: NCI-H1650 BCL-xL protein levels, Nano-Glo HiBiT Lytic Detection; assay type: cell-based; details: NCI-H1650 expressing HiBiT-tagged BCL-xL, overnight incubation, read-out: Bcl-xl HIBIT NCIH1650 DC50
T1 construct: expressed in transfected cells; host or cells: NCI-H1650 (ATCC No. CRL-5883), engineered HiBiT cell line
Outline: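 HiBiT luminescence after cell lysis with LgBiT/furimazine reagent reported BCL-xL levels, expressed relative to untreated wells and fitted with a four-parameter logistic equation. Engineered NCI-H1650 cells were exposed overnight at 37° C to compound at final 0.508 nM-10 μM (10 points, triplicate plates).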

[2] = tested on: EBC-1 lung cancer cell line; experiment: EBC-1 cell proliferation, CellTiter-Glo assay; assay type: cell-based; details: Homo sapiens, 120 h; Ebc-1 cell viability, CTG assay, 5 days of treatment; read-out: CTG 5 day Ebc1 GI50
Outline: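 CellTiter-Glo read-out after 5-day compound treatment, normalised to untreated cells, with GI50 derived by four-parameter logistic regression. Ten concentrations spanning 0.508 nM–10 μM were added to 1000 EBC-1 cells per well the day after seeding. Assays required at least one cell doubling versus Day 0.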

T1 sequence (Q07817 whole entry): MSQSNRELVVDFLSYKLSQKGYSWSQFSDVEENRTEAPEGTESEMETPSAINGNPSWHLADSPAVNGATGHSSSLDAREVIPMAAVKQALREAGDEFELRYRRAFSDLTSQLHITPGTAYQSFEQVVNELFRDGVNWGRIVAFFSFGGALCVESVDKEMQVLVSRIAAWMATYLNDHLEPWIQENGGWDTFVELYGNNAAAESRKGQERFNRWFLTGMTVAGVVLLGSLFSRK

Row | SMILES | DC50 [1] | GI50 [2]
1 | Cc1ncsc1-c1ccc(CNC(=O)[C@@H]2C[C@@H](O)CN2C(=O)[C@@H](NC(=O)CCCCCCCCCCC(=O)N2CCN(CC#Cc3ccc(OCCCc4sc(N5CCCc6c5nnc(Nc5nc7ccccc7s5)c6C)nc4C(=O)O)c(F)c3)CC2)C(C)(C)C)cc1 [Example 48, 2-(3-(benzo[d]thiazol-2-ylamino)-4-methyl-6,7-dihydropyrido [2,3-c]pyridazin-8(5H)-yl)-5-(3-(2-fluoro-4-(3-(4-(12-(((S)-1-((2S,4R)-4-hydroxy-2-((4-(4-methylthiazol-5-yl)benzyl)carbamoyl)pyrrolidin-1-yl)-3,3-dimethyl-1-oxobutan-2-yl)amino)-12-oxododecanoyl)piperazin-1-yl)prop-1-yn-1-yl)phenoxy)propyl)thiazole-4-carboxylic acid] | 1 nM | 12 nM
2 | Cc1ncsc1-c1ccc([C@H](C)NC(=O)[C@@H]2C[C@@H](O)CN2C(=O)[C@@H](NC(=O)CCCCCCCCCCCN2CCN(CC#Cc3ccc(OCCCc4sc(N5CCCc6c5nnc(Nc5nc7ccccc7s5)c6C)nc4C(=O)O)c(F)c3)CC2)C(C)(C)C)cc1 [Example 51, 2-(3-(benzo[d]thiazol-2-ylamino)-4-methyl-6,7-dihydropyrido [2,3-c]pyridazin-8(5H)-yl)-5-(3-(2-fluoro-4-(3-(4-(12-(((S)-1-((2S,4R)-4-hydroxy-2-(((S)-1-(4-(4-methylthiazol-5-yl)phenyl)ethyl)carbamoyl)pyrrolidin-1-yl)-3,3-dimethyl-1-oxobutan-2-yl)amino)-12-oxododecyl)piperazin-1-yl)prop-1-yn-1-yl)phenoxy)propyl)thiazole-4-carboxylic acid] | 0.3 nM | 1 nM
3 | Cc1ncsc1-c1ccc([C@H](C)NC(=O)[C@@H]2C[C@@H](O)CN2C(=O)[C@@H](NC(=O)CCCCCCCCCCCCCCCN(C)CCOC23CC4(C)CC(C)(CC(Cn5ncc(-c6ccc(N7CCCc8c7nnc(Nc7nc9ccccc9s7)c8C)nc6C(=O)O)c5C)(C4)C2)C3)C(C)(C)C)cc1 [Example 1, 6-[3-(1,3-benzothiazol-2-ylamino)-4-methyl-6,7-dihydro-5H-pyrido[2,3-c]pyridazin-8-yl]-3-[1-[[3-[2-[[16-[[(1S)-1-[(2S,4R)-4-hydroxy-2-[[(1S)-1-[4-(4-methylthiazol-5-yl)phenyl]ethyl]carbamoyl]pyrrolidine-1-carbonyl]-2,2-dimethyl-propyl]amino]-16-oxo-hexadecyl]-methyl-amino]ethoxy]-5,7-dimethyl-1-adamantyl]methyl]-5-methyl-pyrazol-4-yl]pyridine-2-carboxylic acid] | 1 nM | 5 nM
4 | Cc1ncsc1-c1ccc([C@H](C)NC(=O)[C@@H]2C[C@@H](O)CN2C(=O)[C@@H](NC(=O)CCCCCCCN(C)CCOC23CC4(C)CC(C)(CC(Cn5ncc(-c6ccc(N7CCCc8c7nnc(Nc7nc9ccccc9s7)c8C)nc6C(=O)O)c5C)(C4)C2)C3)C(C)(C)C)cc1 [Example 6, 6-[3-(1,3-benzothiazol-2-ylamino)-4-methyl-6,7-dihydro-5H-pyrido[2,3-c]pyridazin-8-yl]-3-[1-[[3-[2-[[8-[[(1S)-1-[(2S,4R)-4-hydroxy-2-[[(1S)-1-[4-(4-methylthiazol-5-yl)phenyl]ethyl]carbamoyl]pyrrolidine-1-carbonyl]-2,2-dimethyl-propyl]amino]-8-oxo-octyl]-methyl-amino]ethoxy]-5,7-dimethyl-1-adamantyl]methyl]-5-methyl-pyrazol-4-yl]pyridine-2-carboxylic acid] | 3 nM | 13 nM
5 | Cc1ncsc1-c1ccc([C@H](C)NC(=O)[C@@H]2C[C@@H](O)CN2C(=O)[C@@H](NC(=O)CCCC(=O)N2CCN(CC#Cc3ccc(OCCCc4sc(N5CCCc6c5nnc(Nc5nc7ccccc7s5)c6C)nc4C(=O)O)c(F)c3)CC2)C(C)(C)C)cc1 [Example 35, 2-(3-(benzo[d]thiazol-2-ylamino)-4-methyl-6,7-dihydropyrido [2,3-c]pyridazin-8(5H)-yl)-5-(3-(2-fluoro-4-(3-(4-(5-(((S)-1-((2S,4R)-4-hydroxy-2-(((S)-1-(4-(4-methylthiazol-5-yl)phenyl)ethyl)carbamoyl)pyrrolidin-1-yl)-3,3-dimethyl-1-oxobutan-2-yl)amino)-5-oxopentanoyl)piperazin-1-yl)prop-1-yn-1-yl)phenoxy)propyl)thiazole-4-carboxylic acid] | > 1670 nM | 19 nM
6 | Cc1ncsc1-c1ccc(CNC(=O)[C@@H]2C[C@@H](O)CN2C(=O)[C@@H](NC(=O)CCCCCCC(=O)N2CCN(CC#Cc3ccc(OCCCc4sc(N5CCCc6c5nnc(Nc5nc7ccccc7s5)c6C)nc4C(=O)O)c(F)c3)CC2)C(C)(C)C)cc1 [Example 33, 2-(3-(benzo[d]thiazol-2-ylamino)-4-methyl-6,7-dihydropyrido [2,3-c]pyridazin-8(5H)-yl)-5-(3-(2-fluoro-4-(3-(4-(8-(((S)-1-((2S,4R)-4-hydroxy-2-((4-(4-methylthiazol-5-yl)benzyl)carbamoyl)pyrrolidin-1-yl)-3,3-dimethyl-1-oxobutan-2-yl)amino)-8-oxooctanoyl)piperazin-1-yl)prop-1-yn-1-yl)phenoxy)propyl) thiazole-4-carboxylic acid] | > 1670 nM | 33 nM
7 | Cc1ncsc1-c1ccc([C@H](C)NC(=O)[C@@H]2C[C@@H](O)CN2C(=O)[C@@H](NC(=O)CCCCCCCCN(C)CCOC23CC4(C)CC(C)(CC(Cn5ncc(-c6ccc(N7CCCc8c7nnc(Nc7nc9ccccc9s7)c8C)nc6C(=O)O)c5C)(C4)C2)C3)C(C)(C)C)cc1 [Example 5, 6-[3-(1,3-benzothiazol-2-ylamino)-4-methyl-6,7-dihydro-5H-pyrido[2,3-c]pyridazin-8-yl]-3-[1-[[3-[2-[[9-[[(1S)-1-[(2S,4R)-4-hydroxy-2-[[(1S)-1-[4-(4-methylthiazol-5-yl)phenyl]ethyl]carbamoyl]pyrrolidine-1-carbonyl]-2,2-dimethyl-propyl]amino]-9-oxo-nonyl]-methyl-amino]ethoxy]-5,7-dimethyl-1-adamantyl]methyl]-5-methyl-pyrazol-4-yl]pyridine-2-carboxylic acid] | 2 nM | 23 nM
8 | Cc1ncsc1-c1ccc(CNC(=O)C2C[C@@H](O)CN2C(=O)C(NC(=O)CCCCCC(=O)N2CCN(CC#Cc3ccc(OCCCc4sc(N5CCCc6c5nnc(Nc5nc7ccccc7s5)c6C)nc4C(=O)O)c(F)c3)CC2)C(C)(C)C)cc1 (stereo in doubt) [Example 15, 2-[3-(1,3-benzothiazol-2-ylamino)-4-methyl-6,7-dihydro-5H-pyrido[2,3-c]pyridazin-8-yl]-5-[3-[2-fluoro-4-[3-[4-[7-[[(1S)-1-[(2S,4R)-4-hydroxy-2-[[4-(4-methylthiazol-5-yl)phenyl]methylcarbamoyl]pyrrolidine-1-carbonyl]-2,2-dimethyl-propyl]amino]-7-oxo-heptanoyl]piperazin-1-yl]prop-1-ynyl]phenoxy]propyl] thiazole-4-carboxylic acid] | > 1670 nM | 21 nM
9 | Cc1ncsc1-c1ccc([C@H](C)NC(=O)[C@@H]2C[C@@H](O)CN2C(=O)[C@@H](NC(=O)CCCCCCCCCCC(=O)N2CCN(CCOC34CC5(C)CC(C)(CC(Cn6ncc(-c7ccc(N8CCCc9c8nnc(Nc8nc%10ccccc%10s8)c9C)nc7C(=O)O)c6C)(C5)C3)C4)CC2)C(C)(C)C)cc1 [Example 47, 6-(3-(benzo[d]thiazol-2-ylamino)-4-methyl-6,7-dihydropyrido [2,3-c]pyridazin-8(5H)-yl)-3-(1-(((1r,3s,5R,7S)-3-(2-(4-(12-(((S)-1-((2S,4R)-4-hydroxy-2-(((S)-1-(4-(4-methylthiazol-5-yl)phenyl)ethyl)carbamoyl)pyrrolidin-1-yl)-3,3-dimethyl-1-oxobutan-2-yl)amino)-12-oxododecanoyl)piperazin-1-yl)ethoxy)-5,7-dimethyladamantan-1-yl)methyl)-5-methyl-1H-pyrazol-4-yl)picolinic acid] | 9 nM | 76 nM
10 | Cc1ncsc1-c1ccc([C@H](C)NC(=O)[C@@H]2C[C@@H](O)CN2C(=O)[C@@H](NC(=O)CCCCCCCCCCC(=O)N2CCN(CC#Cc3ccc(OCCCc4sc(N5CCCc6c5nnc(Nc5nc7ccccc7s5)c6C)nc4C(=O)O)c(F)c3)CC2)C(C)(C)C)cc1 [Example 46, 2-(3-(benzo[d]thiazol-2-ylamino)-4-methyl-6,7-dihydropyrido [2,3-c]pyridazin-8(5H)-yl)-5-(3-(2-fluoro-4-(3-(4-(12-(((S)-1-((2S,4R)-4-hydroxy-2-(((S)-1-(4-(4-methylthiazol-5-yl)phenyl)ethyl)carbamoyl)pyrrolidin-1-yl)-3,3-dimethyl-1-oxobutan-2-yl)amino)-12-oxododecanoyl)piperazin-1-yl)prop-1-yn-1-yl)phenoxy)propyl)thiazole-4-carboxylic acid] | 2 nM | 7 nM
11 | Cc1ncsc1-c1ccc([C@H](C)NC(=O)C2CC(O)CN2C(=O)C(NC(=O)CCCCCCCCCCCN2CCN(CC#Cc3ccc(OCCCc4sc(N5CCCc6c5nnc(Nc5nc7ccccc7s5)c6C)nc4C(=O)O)c(F)c3)CC2)C(C)(C)C)cc1 (stereo in doubt) [Example 31, 2-[3-(1,3-benzothiazol-2-ylamino)-4-methyl-6,7-dihydro-5H-pyrido[2,3-c]pyridazin-8-yl]-5-[3-[2-fluoro-4-[3-[4-[12-[[(1S)-1-[(2S,4R)-4-hydroxy-2-[[(1S)-1-[4-(4-methylthiazol-5-yl)phenyl]ethyl]carbamoyl]pyrrolidine-1-carbonyl]-2,2-dimethyl-propyl]amino]-12-oxo-dodecyl]piperazin-1-yl]prop-1-ynyl]phenoxy]propyl] thiazole-4-carboxylic acid] | 0.4 nM | 1 nM
